# According to the supplement of paper PMC10307832:
# Assays:
# Test in all cases: relative viability (nuclei count vs DMSO), 5 days (fraction); higher = more cells survive
# [1] = compound: CC1=NN=C(O1)C2=NN=C(C=C2)N3CCC(CC3)OC4=C(C=CC(=C4)F)Cl + O=C(c1cc(Cc2n[nH]c(=O)c3ccccc23)ccc1F)N1CCN(C(=O)C2CC2)CC1 [Olaparib] (partner 8 µM)
# Method in brief: (§1)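 A single step with final 0.05% Triton X-100, 1% formaldehyde and 1 ug/ml Hoechst fixed the cells and stained nuclei 5 days after treatment. Lung cancer cell lines in 1536-well plates had been treated by pin tool the day after seeding with one drug alone or a fixed anchor-drug dose plus five library-drug doses (not always all listed) in √10 steps, and nuclei were counted on 4× images. Relative viability is the ratio of nuclei in treated wells to nuclei in vehicle wells, taken as the median of duplicate plates.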
# Tosedostat + Luminespib = compound: CC(C)C[C@@H](C(=O)N[C@H](C(=O)OC1CCCC1)c1ccccc1)[C@H](O)C(=O)NO [Tosedostat] + CCNC(=O)c1noc(-c2cc(C(C)C)c(O)cc2O)c1-c1ccc(CN2CCOCC2)cc1 [Luminespib] (partner 0.01 µM)
# Method in brief: as §1
# [2] = compound: CC1=NN=C(O1)C2=NN=C(C=C2)N3CCC(CC3)OC4=C(C=CC(=C4)F)Cl + CS(=O)(=O)N1CCN(Cc2cc3nc(-c4cccc5[nH]ncc45)nc(N4CCOCC4)c3s2)CC1 [Pictilisib] (partner 1 µM)
# Method in brief: as §1
# Tosedostat + Trametinib = compound: CC(C)C[C@@H](C(=O)N[C@H](C(=O)OC1CCCC1)c1ccccc1)[C@H](O)C(=O)NO [Tosedostat] + CC(=O)Nc1cccc(-n2c(=O)n(C3CC3)c(=O)c3c(Nc4ccc(I)cc4F)n(C)c(=O)c(C)c32)c1 [Trametinib] (partner 0.02 µM)
# Method in brief: as §1
Cell Line,relative viability ([1]; first compound 0.253 µM),relative viability ([1]; first compound 0.8 µM),relative viability ([1]; first compound 2.53 µM),relative viability ([1]; first compound 8 µM),relative viability (Tosedostat + Luminespib; first compound 0.02 µM),relative viability (Tosedostat + Luminespib; first compound 0.06325 µM),relative viability (Tosedostat + Luminespib; first compound 0.2 µM),relative viability (Tosedostat + Luminespib; first compound 0.6325 µM),relative viability (Tosedostat + Luminespib; first compound 2 µM),relative viability ([2]; first compound 0.253 µM),relative viability ([2]; first compound 0.8 µM),relative viability ([2]; first compound 2.53 µM),relative viability ([2]; first compound 8 µM),relative viability (Tosedostat + Trametinib; first compound 0.02 µM),relative viability (Tosedostat + Trametinib; first compound 0.06325 µM),relative viability (Tosedostat + Trametinib; first compound 0.2 µM),relative viability (Tosedostat + Trametinib; first compound 0.6325 µM),relative viability (Tosedostat + Trametinib; first compound 2 µM)
HCC-827,0.396,0.242,0.401,0.386,0.587,0.73,0.651,0.362,0.695,0.544,0.571,0.609,0.605,0.545,0.571,0.552,0.505,0.518
HOP-62,0.388,0.116,0.192,0.279,1.01,0.894,0.925,0.919,0.817,0.652,–,0.645,0.331,0.41,0.442,0.404,0.495,0.451
IA-LM,0.114,0.12,0.131,0.121,–,–,–,–,–,0.173,0.195,0.203,0.187,–,–,–,–,–
LC-2-ad,0.297,0.257,0.255,0.238,1.2,1.05,0.923,0.792,0.891,0.423,0.416,0.4,0.386,0.971,0.893,0.885,0.917,0.967
LCLC-97TM1,0.369,–,0.267,0.258,0.775,0.81,0.688,0.644,0.652,0.234,–,0.213,0.239,0.19,0.202,0.232,0.177,0.161
LCLC-103H,0.512,0.509,0.514,0.465,1.04,0.932,1.04,0.998,0.9,0.556,0.479,0.567,0.473,0.678,0.682,0.713,0.721,0.779
LK-2,0.757,0.58,0.655,0.672,0.175,0.21,0.167,0.221,0.214,0.651,0.716,0.869,0.751,0.903,0.819,0.614,0.628,0.78
LOU-NH91,–,0.818,0.879,0.883,0.377,0.454,0.313,0.306,0.322,–,0.519,0.55,0.499,0.787,0.803,0.824,0.766,0.777
LU99A,0.214,0.294,0.277,0.299,0.316,0.245,0.337,0.277,0.232,0.303,0.327,0.304,0.34,0.51,0.47,0.567,0.544,0.47
LXF-289,0.829,0.632,0.902,0.788,0.703,0.599,0.687,0.732,0.64,0.69,0.718,0.687,0.6,0.744,0.651,0.661,0.703,0.687
NCI-H23,0.164,0.272,0.327,0.302,0.233,0.203,0.22,0.237,0.207,0.466,–,0.527,0.463,0.426,0.329,0.359,0.321,0.284
NCI-H322M,0.746,0.724,0.817,0.732,0.835,0.895,0.862,0.826,0.788,0.511,0.486,0.482,0.451,0.548,0.501,0.452,0.456,0.467
NCI-H358,0.296,0.275,0.321,0.26,0.229,0.304,0.234,0.293,0.187,0.355,0.345,0.387,0.357,0.144,0.126,0.13,0.113,0.133
NCI-H441,0.355,0.353,0.349,0.383,0.347,0.351,0.348,0.332,0.306,0.504,0.423,0.389,0.389,0.478,0.579,0.499,0.562,0.461
NCI-H522,0.694,0.566,0.664,0.686,1.29,1.27,1.23,1.41,1.27,–,–,–,–,0.716,0.796,0.752,0.895,0.78
NCI-H1299,0.741,0.722,0.717,0.664,–,–,–,–,–,0.698,0.611,0.71,0.713,–,–,–,–,–
NCI-H1563,–,–,–,–,0.575,0.52,0.5,0.648,0.492,0.625,0.694,0.659,0.633,–,–,–,–,–
NCI-H1623,–,–,–,–,0.51,0.622,0.607,0.538,0.607,–,–,–,–,–,–,–,–,–
NCI-H1648,0.459,0.574,0.406,0.618,–,–,–,–,–,–,–,–,–,0.417,0.447,0.476,0.477,0.336
NCI-H1703,0.341,0.438,0.448,0.609,–,–,–,–,–,0.226,0.265,0.258,0.279,–,–,–,–,–
NCI-H2342,0.305,0.309,0.369,0.363,0.686,0.732,0.806,0.859,0.883,–,–,–,–,0.808,0.797,0.93,0.903,0.919
SW 900,–,0.801,0.776,0.802,0.175,0.182,0.19,0.17,0.155,–,–,–,–,0.696,0.754,0.777,0.639,0.609
